Counter-ions that a name gives are not always drawn.
Legend:
human 5-HT4b receptor = molecular target: T1, human 5-HT4b receptor (Homo sapiens, UniProt Q13639); assay: Test Example 4: Serotonin 4 (5-HT4) receptor agonist activity assay, cAMP HTRF in CHO cells (Table 100); assay type: cell-based; conditions: mean value; for Emax: CHO, 0.25 h, intrinsic activity, maximal activity of 5-HT defined as 100%, read-out: IA (%); for EC50: concentration showing 50% of IA
T1 construct: expressed in transfected cells; host or cells: CHO cells (G418 selection)
Experimental: The cAMP measurement test used herein was carried out by using CISBIO HTRF (trademark) cAMP Hirange kit according to the manufacturer's instructions attached therewith.
CHO cells expressing human 5-HT4b receptor were incubated in Medium 1 [DMEM/1% NEAA, 1% penicillin/streptomycin (P/S), 0.2 mg/mL GENETICIN (G418), 10% FBS] at 37° C. under 5% CO2 condition. Then, the cells were put into Medium 2 (DMEM/10000 cut FBS, G-418, P/S, NEAA) for 1 to 2 hours, and collected by treating with trypsin containing EDTA. The collected cells were suspended in Assay Buffer 1 [100 mM Hanks/HEPES buffer (pH 7.4)], the suspended cells were mixed with the testing compound on 384-well plates, and the cells were incubated at 31° C. for 15 minutes. To the cells were added cAMP-cryptate solution and cAMP-d2 solution, and they were incubated at room temperature for 1 hour. Then, time-resolved fluorescence was measured by En Vision (excitation wavelength: 330 nm, fluorescence wavelength: 620/665 nm).
An intrinsic activity of the compound [IA (%)] and a concentration showing 50% of IA [EC50 (nM)] were calculated from the obtained results. In particular, the intrinsic activity (IA) was calculated on the basis of the maximal activity of 5-HT (measured from 10^−11 M to 10^−7 M) defined as 100%.
In the following table, the compounds used in the test are shown in numbers which correspond to the Example numbers above where the preparations of the compounds are described.

5-HT4 receptor = molecular target: T2, 5-HT4 receptor (Cavia porcellus, UniProt O70528); assay: Test Example 3: Guinea pig 5-HT4 receptor binding assay, [3H]-GR113808, striatum membranes (Table 98); conditions: Guinea pig 5-HT4 receptor binding assay, [3H]-GR113808, striatum membranes; mean value of each group; read-out: IC50
T2 construct: striatum was isolated which was cryopreserved at −80° C. until use; from tissue; host or cells: guinea pig (Slc-Hartley) striatum membranes
Method in brief: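 Striatal membranes from Slc-Hartley guinea pigs were incubated with 0.1 nM [3H]-GR113808 and test compounds in 50 mM Hepes pH 7.4 at 37° C for 30 min; nonspecific binding was defined with 30 μM serotonin. Bound radioactivity was collected by filtration, and IC50 was derived from inhibition of specific binding.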

T2 sequence (O70528 whole entry): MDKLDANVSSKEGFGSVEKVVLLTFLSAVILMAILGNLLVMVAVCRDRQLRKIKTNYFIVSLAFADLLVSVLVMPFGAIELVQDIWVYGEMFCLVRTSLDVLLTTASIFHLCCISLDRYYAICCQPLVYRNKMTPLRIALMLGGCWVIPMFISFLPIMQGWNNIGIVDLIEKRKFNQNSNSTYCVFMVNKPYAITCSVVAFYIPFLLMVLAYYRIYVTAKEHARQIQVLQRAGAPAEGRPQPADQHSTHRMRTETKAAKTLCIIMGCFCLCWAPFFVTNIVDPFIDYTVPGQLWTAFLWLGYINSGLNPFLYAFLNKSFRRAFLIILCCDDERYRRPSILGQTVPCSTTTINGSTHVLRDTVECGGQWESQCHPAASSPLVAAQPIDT
T1 sequence (Q13639 whole entry): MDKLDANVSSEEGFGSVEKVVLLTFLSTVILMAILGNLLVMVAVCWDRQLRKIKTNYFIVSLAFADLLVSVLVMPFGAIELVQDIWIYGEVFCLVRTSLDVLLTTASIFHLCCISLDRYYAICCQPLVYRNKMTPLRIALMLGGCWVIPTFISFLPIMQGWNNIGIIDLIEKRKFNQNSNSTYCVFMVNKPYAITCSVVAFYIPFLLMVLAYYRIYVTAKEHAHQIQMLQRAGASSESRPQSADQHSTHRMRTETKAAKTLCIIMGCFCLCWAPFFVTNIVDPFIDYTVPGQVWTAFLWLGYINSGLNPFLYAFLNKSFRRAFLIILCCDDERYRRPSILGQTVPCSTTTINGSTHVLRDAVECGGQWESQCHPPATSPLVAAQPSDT

Row | Emax (human 5-HT4b receptor) | EC50 (human 5-HT4b receptor) | IC50 (5-HT4 receptor) | SMILES
1 | 93.5% | 2.9 nM | < 20 nM | COCC(=O)N1CCC(N2CCC(c3nc(-n4nc(C(C)C)c5cccc(F)c54)no3)CC2)CC1 [Example 233, 1-(4-{3-[7-fluoro-3-(propan-2-yl)-1H-indazol-1-yl]-1,2,4-oxadiazol-5-yl}-1,4′-bipiperidin-1′-yl)-2-methoxyethanone hydrochloride]
2 | 1.6% | 11.9 nM | 44.7 nM | CCc1nn(-c2noc(C3CCN(CC4CCOCC4)CC3)n2)c2cc(C)ccc12 [Example 435, 3-ethyl-6-methyl-1-{5-[1-(tetrahydro-2H-pyran-4-ylmethyl)piperidin-4-yl]-1,2,4-oxadiazol-3-yl}-1H-indazole trifluoroacetate]
3 | 70.5% | 8.9 nM | 23.6 nM | COC(=O)N1CCC(CN2CCC(c3nc(-n4nc(C(C)C)c5ccc(F)c(F)c54)no3)CC2)CC1 [Example 482, methyl 4-[(4-{3-[6,7-difluoro-3-(propan-2-yl)-1H-indazol-1-yl]-1,2,4-oxadiazol-5-yl}piperidin-1-yl)methyl]piperidine-1-carboxylate trifluoroacetate]
4 | 89.4% | 34.4 nM | 20.2 nM | COC(=O)N1CC(CN2CCC(c3nc(-n4nc(C(C)C)c5ccc(F)c(F)c54)no3)CC2)C1 [Example 474, methyl 3-[(4-{3-[6,7-difluoro-3-(propan-2-yl)-1H-indazol-1-yl]-1,2,4-oxadiazol-5-yl}piperidin-1-yl)methyl]azetidine-1-carboxylate trifluoroacetate]
5 | 73.8% | 7.1 nM | < 20 nM | COCC(=O)N1CCC(CN2CCC(c3nc(-n4nc(C(C)C)c5ccc(F)c(F)c54)no3)CC2)CC1 [Example 481, 1-{4-[(4-{3-[6,7-difluoro-3-(propan-2-yl)-1H-indazol-1-yl]-1,2,4-oxadiazol-5-yl}piperidin-1-yl)methyl]piperidin-1-yl}-2-methoxyethanone trifluoroacetate]
6 | 54.3% | 47.2 nM | 29.7 nM | CC(=O)N1CC(CN2CCC(c3nc(-n4nc(C(C)C)c5ccc(F)c(F)c54)no3)CC2)C1 [Example 472, 1-{3-[(4-{3-[6,7-difluoro-3-(propan-2-yl)-1H-indazol-1-yl]-1,2,4-oxadiazol-5-yl}piperidin-1-yl)methyl]azetidin-1-yl}ethanone trifluoroacetate]
7 | 70% | 31.2 nM | < 20 nM | CC(=O)N1CCC(N2CCC(c3nc(-n4nc(C(C)C)c5ccc(F)c(F)c54)no3)CC2)CC1 [Example 464, 1-(4-{3-[6,7-difluoro-3-(propan-2-yl)-1H-indazol-1-yl]-1,2,4-oxadiazol-5-yl}-1,4′-bipiperidin-1′-yl}ethanone trifluoroacetate]
8 | 68.8% | 5.3 nM | 20.4 nM | CCc1nn(-c2noc(C3CCN(CC4CN(C(=O)COC)C4)CC3)n2)c2c(F)c(F)ccc12 [Example 469, 1-[3-({4-[3-(3-ethyl-6,7-difluoro-1H-indazol-1-yl)-1,2,4-oxadiazol-5-yl]piperidin-1-yl}methyl)azetidin-1-yl]-2-methoxyethanone trifluoroacetate]
9 | 72.7% | 3.4 nM | < 20 nM | CCc1nn(-c2noc(C3CCN(CC4CN(C(C)=O)C4)CC3)n2)c2c(F)cccc12 [Example 223, 1-[3-({4-[3-(3-ethyl-7-fluoro-1H-indazol-1-yl)-1,2,4-oxadiazol-5-yl]piperidin-1-yl}methyl)azetidin-1-yl]ethanone hydrochloride]
10 | 99% | 28.1 nM | < 20 nM | CC(C)c1nn(-c2noc(C3CCN(C4CCC4)C3)n2)c2c(F)cccc12 (stereo not drawn) [Example 455, 1-[5-(1-cyclobutylpyrrolidin-3-yl)-1,2,4-oxadiazol-3-yl]-7-fluoro-3-(propan-2-yl)-1H-indazole]

— patent US20140057895A1, “INDAZOLE- AND PYRROLOPYRIDINE-DERIVATIVE AND PHARMACEUTICAL USE THEREOF” (priority 2011, published 2014)
